Read-outs that look alike come from different tables or passages of the source.
Tested on: Plutella xylostella
Assay: Insecticidal effect on Plutella xylostella (leaf disc immersion)
Type: in vivo
Conditions: foliar, 72 h, read-out: insecticidal activity on Plutella xylostella (mortality %)
Procedure: The test reagents were all dissolved in a mixed solvent of acetone:N′N′-dimethylcarboxamide (1:1) to give a 1000 mg/L solution. 1% Tween-80 was added as an emulsifier to each solution. These solutions were then diluted with 1% Tween-20 solution in water to give desired concentrations of test solutions. An aqueous solution containing 1% Tween-20 was used as a control.
Third instar larvae of Plutella xylostella were used. Cabbages were washed, air dried, punched into leaf discs, immersed in reagent solutions for 10 sec, taken out, naturally dried and then placed in a Petri dish. 10 third-instar larvae of Plutella xylostella were inoculated to each Petri dish, and three replicates were set. The number of deaths in 3 days was investigated, and the mortality was calculated.

[1] = concentration 0.05 ppm, third instar larvae, 3 days
[2] = concentration 0.5 ppm, third instar larvae, 3 days

| SMILES | mortality at 0.01 ppm (concentration 0.01 ppm, third instar larvae, 3 days) | mortality at 0.05 ppm [1] | mortality at 0.5 ppm [2] | mortality at 0.01 ppm | mortality at 0.05 ppm | mortality at 0.5 ppm |
| --- | --- | --- | --- | --- | --- | --- |
| CC(C)(C#N)NC(=O)c1cc(Cl)cc(Cl)c1NC(=O)c1cc(Br)nn1-c1ncccc1Cl [KC2] | 28.1% | 51.4% | 88.2% |  |  |  |
| Cc1cc(Cl)cc(C(=O)NC(C)(C)C#N)c1NC(=O)c1cc(Br)nn1-c1ncccc1Cl [KC1] |  | 45.7% | 71.9% |  |  |  |
| CN(C(=O)c1cc(Cl)cc(Cl)c1NC(=O)c1cc(Br)nn1-c1ncccc1Cl)C(C)(C)C#N [Compound 1.15, N-(6-N-((2-cyanopropan-2-yl)-N-methylcarbamoyl)-2,4-dichlorophenyl)-1-(3-chloropyridin-2-yl)-3-bromo-1H-pyrazol-5-carboxamide] |  |  |  | 66.7% | 86.7% | 100% |

— patent publication US11390602B2, “N-alkyl-N-cyanoalkylbenzamide compound and use thereof” (JIANGSU FLAG CHEMICAL INDUSTRY CO., LTD., priority 2017, dated 2022)
